{
  "source": "patent US8192962B2",
  "about": "“Processes for detecting toxic substances” (Daikin Industries, Ltd., priority 2001, dated 2012)",
  "tested_on": "Genes belonging to other category",
  "assay": "DNA chip mRNA expression in yeast, genes belonging to other category (Table 9)",
  "assay_type": "cell-based, Saccharomyces cerevisiae S288C",
  "outline": "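S. cerevisiae S288C grown at 25° C. in YPD to log phase, then exposed 2 h to a toxicant at a growth-inhibiting, non-lethal concentration; untreated cells as control. Poly(A) mRNA reverse-transcribed with Cy3-dUTP or Cy5-dUTP, hybridized >12 h at 65° C. to whole-genome yeast DNA chip; value = fluorescence ratio treated/untreated.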",
  "data": [
    {"substance": "manganese ethylenebis(dithiocarbamate) [(8)]", "values": [
      {"measurement": "The level of expressed mRNA in the presence of chemical substance/The level of expressed mRNA in the absence of chemical substance", "setting": "yeast gene YAR010C", "value": 1.3},
      {"measurement": "The level of expressed mRNA in the presence of chemical substance/The level of expressed mRNA in the absence of chemical substance", "setting": "yeast gene YBL005W-A", "value": 1.0},
      {"measurement": "The level of expressed mRNA in the presence of chemical substance/The level of expressed mRNA in the absence of chemical substance", "setting": "yeast gene YBL041W", "value": 1.7},
      {"measurement": "The level of expressed mRNA in the presence of chemical substance/The level of expressed mRNA in the absence of chemical substance", "setting": "yeast gene YBL043W", "value": 2.1},
      {"measurement": "The level of expressed mRNA in the presence of chemical substance/The level of expressed mRNA in the absence of chemical substance", "setting": "yeast gene YBL078C", "value": 1.6},
      {"measurement": "The level of expressed mRNA in the presence of chemical substance/The level of expressed mRNA in the absence of chemical substance", "setting": "yeast gene YBR214W", "value": 0.7},
      {"measurement": "The level of expressed mRNA in the presence of chemical substance/The level of expressed mRNA in the absence of chemical substance", "setting": "yeast gene YCL020W", "value": 1.7},
      {"measurement": "The level of expressed mRNA in the presence of chemical substance/The level of expressed mRNA in the absence of chemical substance", "setting": "yeast gene YCL027W", "value": 0.6},
      {"measurement": "The level of expressed mRNA in the presence of chemical substance/The level of expressed mRNA in the absence of chemical substance", "setting": "yeast gene YCR004C", "value": 1.2},
      {"measurement": "The level of expressed mRNA in the presence of chemical substance/The level of expressed mRNA in the absence of chemical substance", "setting": "yeast gene YCR071C", "value": 0.9},
      {"measurement": "The level of expressed mRNA in the presence of chemical substance/The level of expressed mRNA in the absence of chemical substance", "setting": "yeast gene YCR088W", "value": 0.5},
      {"measurement": "The level of expressed mRNA in the presence of chemical substance/The level of expressed mRNA in the absence of chemical substance", "setting": "yeast gene YDL008W", "value": 1.2},
      {"measurement": "The level of expressed mRNA in the presence of chemical substance/The level of expressed mRNA in the absence of chemical substance", "setting": "yeast gene YDL238C", "value": 5.8},
      {"measurement": "The level of expressed mRNA in the presence of chemical substance/The level of expressed mRNA in the absence of chemical substance", "setting": "yeast gene YDR055W", "value": 1.6},
      {"measurement": "The level of expressed mRNA in the presence of chemical substance/The level of expressed mRNA in the absence of chemical substance", "setting": "yeast gene YDR084C", "value": 0.7},
      {"measurement": "The level of expressed mRNA in the presence of chemical substance/The level of expressed mRNA in the absence of chemical substance", "setting": "yeast gene YDR085C", "value": 2.0},
      {"measurement": "The level of expressed mRNA in the presence of chemical substance/The level of expressed mRNA in the absence of chemical substance", "setting": "yeast gene YDR104C", "value": 1.3},
      {"measurement": "The level of expressed mRNA in the presence of chemical substance/The level of expressed mRNA in the absence of chemical substance", "setting": "yeast gene YDR115W", "value": 1.3},
      {"measurement": "The level of expressed mRNA in the presence of chemical substance/The level of expressed mRNA in the absence of chemical substance", "setting": "yeast gene YDR259C", "value": 1.4},
      {"measurement": "The level of expressed mRNA in the presence of chemical substance/The level of expressed mRNA in the absence of chemical substance", "setting": "yeast gene YDR315C", "value": 1.4},
      {"measurement": "The level of expressed mRNA in the presence of chemical substance/The level of expressed mRNA in the absence of chemical substance", "setting": "yeast gene YDR358W", "value": 1.2},
      {"measurement": "The level of expressed mRNA in the presence of chemical substance/The level of expressed mRNA in the absence of chemical substance", "setting": "yeast gene YDR388W", "value": 0.8},
      {"measurement": "The level of expressed mRNA in the presence of chemical substance/The level of expressed mRNA in the absence of chemical substance", "setting": "yeast gene YDR432W", "value": 0.5},
      {"measurement": "The level of expressed mRNA in the presence of chemical substance/The level of expressed mRNA in the absence of chemical substance", "setting": "yeast gene YDR481C", "value": 1.0},
      {"measurement": "The level of expressed mRNA in the presence of chemical substance/The level of expressed mRNA in the absence of chemical substance", "setting": "yeast gene YDR510W", "value": 1.5},
      {"measurement": "The level of expressed mRNA in the presence of chemical substance/The level of expressed mRNA in the absence of chemical substance", "setting": "yeast gene YEL042W", "value": 0.7},
      {"measurement": "The level of expressed mRNA in the presence of chemical substance/The level of expressed mRNA in the absence of chemical substance", "setting": "yeast gene YEL066W", "value": 1.4},
      {"measurement": "The level of expressed mRNA in the presence of chemical substance/The level of expressed mRNA in the absence of chemical substance", "setting": "yeast gene YER039C", "value": 0.7},
      {"measurement": "The level of expressed mRNA in the presence of chemical substance/The level of expressed mRNA in the absence of chemical substance", "setting": "yeast gene YER107C", "value": 0.8},
      {"measurement": "The level of expressed mRNA in the presence of chemical substance/The level of expressed mRNA in the absence of chemical substance", "setting": "yeast gene YER130C", "value": 1.2},
      {"measurement": "The level of expressed mRNA in the presence of chemical substance/The level of expressed mRNA in the absence of chemical substance", "setting": "yeast gene YFL022C", "value": 0.8},
      {"measurement": "The level of expressed mRNA in the presence of chemical substance/The level of expressed mRNA in the absence of chemical substance", "setting": "yeast gene YFL028C", "value": 1.5},
      {"measurement": "The level of expressed mRNA in the presence of chemical substance/The level of expressed mRNA in the absence of chemical substance", "setting": "yeast gene YFL043C", "value": 1.0},
      {"measurement": "The level of expressed mRNA in the presence of chemical substance/The level of expressed mRNA in the absence of chemical substance", "setting": "yeast gene YGL158W", "value": 1.3},
      {"measurement": "The level of expressed mRNA in the presence of chemical substance/The level of expressed mRNA in the absence of chemical substance", "setting": "yeast gene YGL229C", "value": 0.7},
      {"measurement": "The level of expressed mRNA in the presence of chemical substance/The level of expressed mRNA in the absence of chemical substance", "setting": "yeast gene YGR136W", "value": 1.3},
      {"measurement": "The level of expressed mRNA in the presence of chemical substance/The level of expressed mRNA in the absence of chemical substance", "setting": "yeast gene YGR189C", "value": 1.0},
      {"measurement": "The level of expressed mRNA in the presence of chemical substance/The level of expressed mRNA in the absence of chemical substance", "setting": "yeast gene YGR213C", "value": 2.0},
      {"measurement": "The level of expressed mRNA in the presence of chemical substance/The level of expressed mRNA in the absence of chemical substance", "setting": "yeast gene YGR257C", "value": 1.0},
      {"measurement": "The level of expressed mRNA in the presence of chemical substance/The level of expressed mRNA in the absence of chemical substance", "setting": "yeast gene YHR004C", "value": 0.9},
      {"measurement": "The level of expressed mRNA in the presence of chemical substance/The level of expressed mRNA in the absence of chemical substance", "setting": "yeast gene YHR071W", "value": 1.7},
      {"measurement": "The level of expressed mRNA in the presence of chemical substance/The level of expressed mRNA in the absence of chemical substance", "setting": "yeast gene YHR139C", "value": 1.3},
      {"measurement": "The level of expressed mRNA in the presence of chemical substance/The level of expressed mRNA in the absence of chemical substance", "setting": "yeast gene YHR142W", "value": 1.3},
      {"measurement": "The level of expressed mRNA in the presence of chemical substance/The level of expressed mRNA in the absence of chemical substance", "setting": "yeast gene YIL123W", "value": 0.6},
      {"measurement": "The level of expressed mRNA in the presence of chemical substance/The level of expressed mRNA in the absence of chemical substance", "setting": "yeast gene YIL140W", "value": 0.7},
      {"measurement": "The level of expressed mRNA in the presence of chemical substance/The level of expressed mRNA in the absence of chemical substance", "setting": "yeast gene YJL073W", "value": 1.0},
      {"measurement": "The level of expressed mRNA in the presence of chemical substance/The level of expressed mRNA in the absence of chemical substance", "setting": "yeast gene YJL089W", "value": 1.1},
      {"measurement": "The level of expressed mRNA in the presence of chemical substance/The level of expressed mRNA in the absence of chemical substance", "setting": "yeast gene YJL116C", "value": 1.8},
      {"measurement": "The level of expressed mRNA in the presence of chemical substance/The level of expressed mRNA in the absence of chemical substance", "setting": "yeast gene YJR004C", "value": 0.4},
      {"measurement": "The level of expressed mRNA in the presence of chemical substance/The level of expressed mRNA in the absence of chemical substance", "setting": "yeast gene YJR086W", "value": 1.1}
    ]}
  ]
}
